# Measurements from patent publication US10130616B2, “Securinine and norsecurinine analogue compounds for the treatment of myeloid disorders” (Case Western Reserve University, priority 2013, dated 2018).
# Read-outs that look alike come from different tables or passages of the source.
# Tests used:
# CD14 and CD11b = conditions: flow cytometry; cited from earlier work
# MOLT3 = assay: Growth inhibition of MOLT3 cells; type: cell-based
# Procedure: (§1) In certain embodiments, securinine and norsecurinine analogues were administered to cancerous cells, such as acute myeloblastic leukemia cells (e.g., MOLT3 and OCI-AML3) and growth inhibition was analyzed. The analogues were effective in inhibiting myeloid growth in addition to promoting differentiation, and provide for reduced proliferation of acute myeloblastic leukemia cells (Table 2).
# OCI-AML3 = assay: Growth inhibition of OCI-AML3 cells; type: cell-based
# Procedure: as §1
# HL-60 cells [1] = assay: Growth of HL-60 cells (IC50); type: cell-based, human; conditions: value bracketed between tested concentrations, read-out: HL-60, IC50
# HL-60 leukemic cells [2] = conditions: HL-60 cells; from U.S. patent application Ser. No. 14/029,066; cited from earlier work
# HL-60 cells [3] = conditions: cited from earlier work
# HL-60 leukemic cells [4] = assay: Nitroblue Tetrazolium (NBT) reduction assay, differentiation of HL-60 leukemic cells; type: cell-based, human
# Source text: In an aspect of the present disclosure, the compounds of the disclosure can be identified using a novel high-throughput screen that is biased to identify agents that have both a high potency and low toxicity in a myeloid disorder disease model, such as an animal or cell model. In some embodiments, the high-throughput screen measures the differentiation of HL-60 leukemic cells using a quantitative nitroblue tetrazolium (NBT) reduction assay. Screening HL-60 cells, human promyelocytic cells, is advantageous as they have been used extensively as a cell line to study myeloid differentiation. Though promyelocytic cells, HL-60 cells were derived from a patient with acute myeloblastic leukemia with maturation, FAB-M2.
# This technique has also been widely exploited in HL-60 cells to analyze myelomonocytic differentiation.
# The NBT screen works due to changes in the oxidoreductases during differentiation that lead to increases in rates of NBT reduction. NBT is reduced due to the production of superoxide that is catalyzed by an NADPH oxidase. […] NBT is reduced by superoxide from a soluble yellow compound to insoluble blue formazan granules whose formation can be monitored spectrophotometrically at 560 nm as the unreduced dye has minimal absorbance at this wavelength. A quantitative NBT reduction assay is ideal for this type of screen as it is simple, sensitive, quantitative, requires minimal cells, has been proven to have low well to well variability, and the amount of reduced NBT is proportional to the number of cells reducing the dye as well as the amount reduced by each cell.
# To discover novel AML differentiation-inducing compounds a rapid high-throughput screen (HTS) was developed and optimized. The screen was designed to be biased to identify compounds that, unlike the majority of known differentiation-inducing agents, have both high potency and low toxicity. The screen measured the differentiation of HL-60 leukemic cells using a quantitative Nitroblue Tetrazolium (NBT) reduction assay, a test that is used extensively as a measure of functional myelomonocytic differentiation. The basis for the screen is unreduced NBT exists as a yellow soluble dye. Differentiated leukemic cells are capable of producing a respiratory burst that can reduce NBT into a blue insoluble compound that can be measured spectrophotometrically. This forward chemical genetics approach allowed the discovery of novel compounds that can act on targets not previously known to be “drugable.” As only live cells can reduce NBT, the screen is biased in identifying relatively nontoxic compounds.
# To perform the screen, duplicate plates of HL-60 cells were cultured at a density of 5×10^4 cells/mL with 10 μM of each compound in 96 well plates for 5 days. To determine the relative capability for a compound to induce differentiation compared to known potent inducers, each plate destined for the NBT reduction assay included wells with 0.1% DMSO (vehicle control) and 1 μM ATRA. This approach eliminates any slight day to day variation in NBT reduction values and allows the discovery of compounds with similar or greater efficacy to ATRA. Differentiation was determined in the 96 well plates by incubating the cells with 1 mg/mL of NBT and 200 ng/mL of PMA as the stimulant for the respiratory burst for 35 minutes at 37° C. The reaction was then stopped with HCl and the formazan solubilized with DMSO. Finally, the reaction mixture was read spectrophotometrically at 560 nm in a plate reader.
# The securinine and norsecurinine analogues were tested and evaluated on their abilities to affect differentiation and growth of HL-60 cells (Table 1).
# p44/p42 and p38 = conditions: cited from earlier work
# CEBPβ = conditions: cited from earlier work
# p21 = conditions: cited from earlier work
# [5] = system: 60 cancer cell lines, normal human lymphocytes, normal human bone marrow, mouse embryonic fibroblasts, and human umbilical vein endothelial cells; conditions: 60 cancer cell lines and normal cells; cited from earlier work
# cell cycle (G0/G1) = conditions: cited from earlier work
# leukemic cells = conditions: cited from earlier work
# c-myc = conditions: cited from earlier work
# [6] = system: a variety of leukemic cell lines; conditions: cited from earlier work
# [7] = Homo sapiens, MOLT-3, MOLT3 cells, read-out: MOLT3 IC50
# [8] = Homo sapiens, OCI-AML-3, OCI-AML3 cells, read-out: OCI-AML3 IC50
# [9] = Homo sapiens, HL-60, HL-60 cells
# [10] = Homo sapiens, HL-60, read-out: HL-60, Dif50
# [11] = Homo sapiens, HL-60 cells, value bracketed between tested concentrations, read-out: HL-60, Dif50
SMILES,IC50 (MOLT3; [7]) [nM],IC50 (OCI-AML3; [8]) [nM],IC50 (HL-60 cells [1]; [9]) [nM],other results
C=C1CC[C@H](O)C/C1=C/C=C1\CCC[C@]2(C)[C@@H]([C@H](C)CCCC(C)C)CC[C@@H]12 [vitamin D3],–,–,–,induction of cell surface markers CD14 and CD11b (CD14 and CD11b): induce CD14 and CD11b
CCN(CC)CC#CC1=C[C@@H]2C[C@@]3(OC(=O)C=C13)[C@H]1CCCCN21 [Compound 35],130,110,–,–
O=C1C=C2C(C#Cc3ccsc3)=C[C@@H]3C[C@@]2(O1)[C@H]1CCCCN31 [INVS-MG-136-III],–,–,–,"IC50 (MOLT3; MOLT3 cells, read-out: MOLT3 IC50): 100 nM; IC50 (OCI-AML3; OCI-AML3 cells, read-out: OCI-AML3 IC50): 115 nM; IC50 (HL-60 cells [1]; HL-60 cells): < 70 nM"
"CC1=C(/C=C/C(C)=C/C=C/C(C)=C/C(=O)O)C(C)(C)CCC1 [ATRA, all-trans-retinoic acid]",–,–,–,"cells differentiated, NBT reduction assay (HL-60 leukemic cells [2]): ~95%; induction of cell surface markers CD14 and CD11b (CD14 and CD11b): primarily induces CD11b"
CCOC#CC1=C[C@@H]2C[C@@]3(OC(=O)C=C13)[C@H]1CCCCN21 [Compound 22],196,220,310 to 625,–
COc1cccc(C#CC2=C[C@@H]3C[C@@]4(OC(=O)C=C24)[C@H]2CCCCN32)c1 [Compound 47],150,215,310 to 625,–
O=C1C=C2C(C#Cc3ccccc3)=C[C@@H]3C[C@@]2(O1)[C@H]1CCCCN31 [Compound 17],70,80,70 to 156,–
O=C1C=C2C(C#Cc3cc4ccccc4c4ccccc34)=C[C@@H]3C[C@@]2(O1)[C@H]1CCCCN31 [Compound 41],–,–,–,"IC50 (MOLT3; Homo sapiens, MOLT-3, read-out: MOLT3 IC50 (nM)): 150 nM; IC50 (OCI-AML3; Homo sapiens, OCI-AML-3, read-out: OCI-AML3 IC50 (nM)): 180 nM"
N#Cc1ccc(C#CC2=C[C@@H]3C[C@@]4(OC(=O)C=C24)[C@H]2CCCCN32)cc1 [Compound 46],145,205,310 to 625,–
O=C1C=C2C(C#Cc3ccc(OC(F)(F)F)cc3)=C[C@@H]3C[C@@]2(O1)[C@H]1CCCCN31 [Compound 48],> 300,> 300,310 to 625,–
CN(C)c1ccc(C#CC2=C[C@@H]3C[C@@]4(OC(=O)C=C24)[C@H]2CCCCN32)cc1 [Compound 36],115,105,156 to 310,–
C=C(C)CC#CC1=C[C@@H]2C[C@@]3(OC(=O)C=C13)[C@H]1CCCCN21 [Compound 28],165,200,156 to 310,–
CCCN(CC#CC1=C[C@@H]2C[C@@]3(OC(=O)C=C13)[C@H]1CCCCN21)CCC [Compound 39],80,70,–,–
O=C1C=C2C(C#Cc3ccsc3)=C[C@@H]3C[C@@]2(O1)[C@H]1CCCCN31 [Compound 31],60,75,156 to 310,–
CN(C)CC#CC1=C[C@@H]2C[C@@]3(OC(=O)C=C13)[C@H]1CCCCN21 [Compound 18],70,90,70 to 156,–
"O=C1C=C2C=C[C@@H]3C[C@@]2(O1)[C@H]1CCCCN31 [Securinine, (6S,11aR,11bS)-9,10,11,11a-tetrahydro-8H-6,11b-methanofuro[2,3-c]pyrido[1,2-a]azepin-2(6H)-one]",–,–,–,"cells differentiated, NBT reduction assay (HL-60 leukemic cells [2]): ~95%; proliferation of HL-60 cells (HL-60 cells [3]): potently inhibits the proliferation of HL-60 cells; EC50 (HL-60 leukemic cells [4]; [10]): 10000 to 15000 nM; phosphorylation of p44/p42 and p38 (p44/p42 and p38): induces rapid phosphorylation of p44/p42 and p38; induction of cell surface markers CD14 and CD11b (CD14 and CD11b): induce CD14 and CD11b; CEBPβ expression (CEBPβ): time-dependent upregulation; p21 protein (p21): upregulated; toxicity [5]: low toxicity; cell cycle distribution (cell cycle (G0/G1)): accumulation of cells in G0/G1; morphologic changes (leukemic cells): clear morphologic changes suggestive of monocytic differentiation; c-myc expression (c-myc): potently downregulated; differentiation of leukemic cell lines [6]: can differentiate a variety of leukemic cell lines"
COc1ccc(C#CC2=C[C@@H]3C[C@@]4(OC(=O)C=C24)[C@H]2CCCCN32)cc1 [Compound 29],60,80,39 to 78,–
NCCSC1CC2=CC(=O)O[C@@]23C[C@@H]1N1CCCC[C@@H]13 (stereo partly shown) [Compound 77],–,–,–,EC50 (HL-60 leukemic cells [4]; [11]): 10000 to 15000 nM
O=C1C=C2C(I)=C[C@@H]3C[C@@]2(O1)[C@H]1CCCCN31 [Compound 14],–,–,–,EC50 (HL-60 leukemic cells [4]; [10]): 500 to 750 nM
COc1ccc2cc(C#CC3=C[C@@H]4C[C@@]5(OC(=O)C=C35)[C@H]3CCCCN43)ccc2c1 [Compound 40],90,105,–,–
N#CCCCC#CC1=C[C@@H]2C[C@@]3(OC(=O)C=C13)[C@H]1CCCCN21 [Compound 26],160,195,–,–
O=C1C=C2CC(NC3CC3)[C@@H]3C[C@@]2(O1)[C@H]1CCCCN31 (stereo partly shown) [Compound 80],–,–,–,EC50 (HL-60 leukemic cells [4]; [11]): 20000 to 30000 nM
CCN(CC)CCSC1CC2=CC(=O)O[C@@]23C[C@@H]1N1CCCC[C@@H]13 (stereo partly shown) [Compound 73],–,–,–,EC50 (HL-60 leukemic cells [4]; [11]): 10000 to 15000 nM
O=C1C=C2C[C@H](SCC(F)(F)F)[C@@H]3C[C@@]2(O1)[C@H]1CCCCN31 [INVS-MG-5B],–,–,–,"EC50 (HL-60 leukemic cells [4]; HL-60 cells, value bracketed between tested concentrations, read-out: HL-60, Dif50): > 30000 nM"
O=C1C=C2CC(NCC3CC3)[C@@H]3C[C@@]2(O1)[C@H]1CCCCN31 (stereo partly shown) [Compound 79],–,–,–,EC50 (HL-60 leukemic cells [4]; [11]): 10000 to 15000 nM
